Source: PMC10877565, “Iso-ADP-Ribose Fluorescence Polarization Probe for the Screening of RNF146 WWE Domain Inhibitors” (ACS Chemical Biology, 2024)
“And” between values parts separate entries of the source, which are not always exact repeats. Equal values may be shown once. “Also recorded” adds a separate entry of the source. Read-outs that look alike come from different tables or passages of the source.

Experiments:
RNF146 WWE domain [1] = biological target: T1, RNF146 WWE domain (Homo sapiens, UniProt Q9NTX7); assay: Competitive FP-based binding assay with TAMRA-isoADPr tracer; settings: for IC50: TAMRA-isoADPr 20 nM, RNF146 WWE 100 nM; for Hillslope: IC50 curve of fragment hits
T1 construct: PARP11, PARP14, TiPARP, DTX2, and RNF146 WWE domain plasmids were either cloned or purchased from Twist Biosciences; His tag (N); made in house; host or cells: E. coli BL21(DE3), pET28a
T1 sequence (Q9NTX7 92-168 limits assumed): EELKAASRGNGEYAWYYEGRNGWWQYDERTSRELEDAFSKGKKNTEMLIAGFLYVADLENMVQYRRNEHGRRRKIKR

RNF146 WWE domain [2] = biological target: T1, RNF146 WWE domain; assay: FP protein titration of tracer with RNF146 WWE; type: binding; settings: tracer 20 nM, Tris buffer pH 8.0
Method: Having obtained the tracer molecule TAMRA-isoADPr, we then examined its binding affinity by FP protein titration experiments, where a fixed concentration of the tracer (20 nM) was titrated with increasing concentrations of RNF146 WWE protein in Tris buffer (pH 8.0), yielding a binding curve with an increasing mP shift (ΔmP) until a plateau was observed.
(§1) The purified WWE domain proteins were 3-fold serially diluted from 20 μM to ∼5 nM in the assay buffer (25 mM Tris pH 8.0, 150 mM NaCl, and 0.01% Tween-20). In the assay, 50 μL of the protein solution at each concentration was transferred to a 96-well black plate (Corning, #3915), followed by the addition of 50 μL of TAMRA-isoADPr (40 nM, 2X) in the assay buffer to reach a final volume of 100 μL. The plate was allowed to stand at RT for 30 min and then scanned on Cytation5 equipped with an FP filter cube (Agilent, part number: 8040562, Ex: 530/25, Em: 590/35). mP values were calculated using the equation below [drawing 1] where F// and F⊥ are the parallel and perpendicular fluorescence intensities, respectively, and G is the grating factor of the instrument, which was calibrated so that 20 nM 5-TAMRA has an mP shift of 50. The obtained mP data were fitted in the one-site-specific binding model implemented in GraphPad Prism 9.4.1 (GraphPad Software, Inc.) to give the Kd value using the equation below [drawing 2]

DTX2 WWE = biological target: T2, DTX2 WWE (Homo sapiens, UniProt Q86UW9); assay: FP titration of WWE domains with TAMRA-isoADPr; type: binding; settings: same conditions as RNF146 WWE titration
T2 sequence (Q86UW9 98-174 limits assumed): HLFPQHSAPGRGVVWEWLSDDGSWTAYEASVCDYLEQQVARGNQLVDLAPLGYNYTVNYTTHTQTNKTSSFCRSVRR
Source text: (§2) We then screened the tracer TAMRA-isoADPr against WWE domains of some other proteins, including PARP11, PARP14, HUWE1, TiPARP, and DTX2, under the same conditions. […] To check the folding of purified WWE domains, we obtained the circular dichroism (CD) spectra for the purified WWE domains, and the results indicated proper folding of all purified proteins (Figure S5). […] The isoADPr binding pocket of RNF146 WWE is special in that the entire pocket is largely positively charged with multiple arginine and lysine residues to interact with both phosphate groups of isoADPr, while this feature is missing in other WWE domains containing proteins (Figure S2). Indeed, RNF146 WWE is the only reported high-affinity binder of the isoADPr monomer, so it is likely that other WWE domains tested are simply too weak binders to show any significant binding at the concentrations tested.
as §1

HUWE1 WWE [3] = biological target: T3, HUWE1 WWE (Homo sapiens, UniProt Q7Z6Z7); assay: FP titration of WWE domains with TAMRA-isoADPr; type: binding; settings: same conditions as RNF146 WWE titration
T3 construct: The HUWE1 WWE domain was purified as previously reported; made in house
T3 sequence (Q7Z6Z7 1603-1680 limits assumed): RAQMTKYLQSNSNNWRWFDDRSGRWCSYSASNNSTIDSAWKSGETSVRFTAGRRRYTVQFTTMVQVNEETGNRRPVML
Source text: as §2, §1

PARP11 WWE = biological target: T4, PARP11 WWE (Homo sapiens, UniProt Q9NR21); assay: FP titration of WWE domains with TAMRA-isoADPr; type: binding; settings: same conditions as RNF146 WWE titration
T4 construct: PARP11, PARP14, TiPARP, DTX2, and RNF146 WWE domain plasmids were either cloned or purchased from Twist Biosciences; made in house; host or cells: E. coli BL21(DE3), pET28a
T4 sequence (Q9NR21 22-106 limits assumed): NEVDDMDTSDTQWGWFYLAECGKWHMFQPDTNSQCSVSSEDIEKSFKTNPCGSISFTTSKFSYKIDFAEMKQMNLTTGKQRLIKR
Source text: as §2, §1

PARP14 WWE = biological target: T5, PARP14 WWE (Homo sapiens, UniProt Q460N5); assay: FP titration of WWE domains with TAMRA-isoADPr; type: binding; settings: same conditions as RNF146 WWE titration
T5 construct: PARP11, PARP14, TiPARP, DTX2, and RNF146 WWE domain plasmids were either cloned or purchased from Twist Biosciences; made in house; host or cells: E. coli BL21(DE3), pET28a
T5 sequence (Q460N5 1523-1601 limits assumed): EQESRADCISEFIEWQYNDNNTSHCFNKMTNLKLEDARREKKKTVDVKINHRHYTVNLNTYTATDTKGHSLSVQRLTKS
Source text: as §2, §1

TiPARP WWE = biological target: T6, TiPARP WWE (Homo sapiens, UniProt Q7Z3E1); assay: FP titration of WWE domains with TAMRA-isoADPr; type: binding; settings: same conditions as RNF146 WWE titration
T6 construct: PARP11, PARP14, TiPARP, DTX2, and RNF146 WWE domain plasmids were either cloned or purchased from Twist Biosciences; made in house; host or cells: E. coli BL21(DE3), pET28a
T6 sequence (Q7Z3E1 332-410 limits assumed): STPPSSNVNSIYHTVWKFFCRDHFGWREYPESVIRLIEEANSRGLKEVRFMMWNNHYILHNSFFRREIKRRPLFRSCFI
Source text: as §2, §1

RNF146 WWE [4] = biological target: T7, RNF146 WWE (Homo sapiens, UniProt Q9NTX7); assay: Biolayer interferometry, immobilized biotin-isoADPr with RNF146 WWE; type: binding; settings: BLI
T7 construct: PARP11, PARP14, TiPARP, DTX2, and RNF146 WWE domain plasmids were either cloned or purchased from Twist Biosciences; His tag (N); made in house; host or cells: E. coli BL21(DE3), pET28a
T7 sequence (Q9NTX7 92-168 limits assumed): T1 sequence (Q9NTX7 92-168 limits assumed)
Source text: To further validate that our probe indeed can bind to RNF146 WWE, we sought to measure the Kd value of TAMRA-isoADPr toward RNF146 WWE through biolayer interferometry (BLI). A typical BLI experiment relies on an antibody-coated biosensor tip that can capture the protein of interest, and it was then dipped into solutions containing potential interacting molecules (here, referred to as the analyte).[20] The interaction between the protein and the analyte can be measured in real time through monitoring the reflected light pattern upon complex formation on the biosensor surface, giving useful kinetics information, including kon, koff, and Kd. […] Therefore, we synthesized a biotin-labeled isoADPr compound (11, Figure 3A) from 3′-azido-isoADPr, which is structurally analogous to TAMRA-isoADPr. Biotin-isoADPr was immobilized onto SA biosensors that were then dipped into RNF146 WWE solutions of varying concentrations in multiple association–dissociation cycles (Figure S1B). […] The BLI experiment further supports that our tracer design strategy works for RNF146 WWE.
The binding of biotin-isoADPr to the RNF146 WWE was monitored and measured on an Octet RH16 biolayer interferometer. Three replicate streptavidin biosensor tips (SA) were loaded with 1 μM biotin-isoADPr in the kinetics buffer (PBS with 0.02% Tween-20 and 0.1% BSA) for 300 s. After a 300 s baseline step, the loaded sensor tips were moved to sample wells containing RNF146 WWE protein at 0, 12, 49, 187, 750, 3000, 9000, and 18000 nM in the kinetics buffer sequentially in multiple cycles, with each cycle consisting a 300 s association step in the sample well and a 300 s dissociation step in the buffer well. The volume of each well was 200 μL. A reference biosensor without biotin-isoADPr loading was used to exclude the possibilities of nonspecific binding, and reference wells without RNF146 WWE protein were used for blank subtraction. Data were processed and curves were fitted with a 1:1 best-fit model in Octet BLI Analysis software.

RNF146 WWE [5] = biological target: T7, RNF146 WWE; assay: Fragment library screening by competitive FP, 384-well; type: binding; settings: 100 μM, 1% DMSO
Method: To test the performance of the established FP assay in high-throughput formats, we conducted a pilot screen where isoADPr was used as the positive control, and Enamine Essential Fragments Library, which contains 320 fragments, was used as a test case for potential inhibitors. The test library was screened at 100 μM in 1% DMSO under the established conditions in duplicates in two 384-well plates (Figure 4A). In each plate, four controls were used: buffer control, tracer control, negative control, and positive control. Buffer control allowed the detection of background fluorescence, while tracer and negative controls gave mP values of the free tracer and maximally bound tracer, to which inhibition rates of fragment candidates were normalized. […] From these control wells, different assay parameters could be calculated. One important FP assay parameter is the assay window (ΔmP), which is calculated as the difference between the mP value recorded for the bound tracer (i.e., negative control) and the mP value recorded for the free tracer (i.e., tracer control). […] Another parameter general to all HTS assays is the screening window coefficient (Z′ factor). A Z′ factor value between 0.5 and 1 is suitable for HTS.[26] […] Moreover, the coefficients of variation (CV) of both negative and positive control wells were low.
Using epMotion 96 (Eppendorf), 49.5 μL of the assay solution (100 nM RNF146 WWE and 20 nM TAMRA-isoADPr) or control solution (tracer-only, buffer-only, and positive control with additional 100 μM isoADPr) was transferred from a 96-well mother plate to a 384-well black plate (Corning, #3575). […] For each fragment and positive and negative control well, the relative percent binding of the tracer was calculated as described above. Z’ factor was calculated with the following equation [drawing 5] where σP and σN are the standard deviations of ΔmP values of positive and negative control wells, while μP and μN are the mean ΔmP values of positive and negative control wells.

RNF146 WWE [6] = biological target: T7, RNF146 WWE; settings: isothermal titration calorimetry; read-out: reported Kd; cited from earlier work
HUWE1 WWE [7] = biological target: T3, HUWE1 WWE; settings: reported; cited from earlier work
WWE domains = assay: FP titration of different WWE domains using TAMRA-ADPr; type: binding; settings: Figure S3, n = 3
Source text: as §2
Figure S3. FP titration of different WWE domains using TA M R A -ADPr (n= 3). Data of SA RS-C oV 2 N sp3
Macro (black) is shown here as comparison.
F i g u re S 4. Attempted IC50 measurement and chemical structure of Z1203162033. […]

SMILES: [N-]=[N+]=N[C@H]1[C@@H](O[C@H]2O[C@H](COP(=O)(O)O)[C@@H](O)[C@H]2O)[C@H](n2cnc3c(N)ncnc32)O[C@@H]1COP(=O)(O)O [3′-azido-isoADPr]
- fold more potent than isoADPr (RNF146 WWE domain [1]; IC50 compared with isoADPr): 2 fold
- IC50 (RNF146 WWE domain [1]; 96-well): 0.273 µM

SMILES: CN(C)c1ccc2c(c1)Oc1cc(N(C)C)ccc1C21OC(=O)c2cc(C(=O)NCCCCCCNC(=O)CCc3cn([C@H]4[C@@H](O[C@H]5O[C@H](COP(=O)(O)O)[C@@H](O)[C@H]5O)[C@H](n5cnc6c(N)ncnc65)O[C@@H]4COP(=O)(O)O)nn3)ccc21 [TAMRA-isoADPr]
- Kd (RNF146 WWE domain [2]): 0.0452 µM
- binding of tracer (DTX2 WWE): no binding; also recorded: none of these WWE domains could bind the tracer
- binding of tracer (HUWE1 WWE [3]): no binding; also recorded: none of these WWE domains could bind the tracer
- binding of tracer (PARP11 WWE): no binding; also recorded: none of these WWE domains could bind the tracer
- binding of tracer (PARP14 WWE): no binding; also recorded: none of these WWE domains could bind the tracer
- binding of tracer (TiPARP WWE): no binding; also recorded: none of these WWE domains could bind the tracer

SMILES: O=C(O)c1sccc1-n1cccc1 [compound 13]
- Hillslope (RNF146 WWE domain [1]): -1.834
- IC50 (RNF146 WWE domain [1]; fragment hits): 39.5 µM and 40 µM

SMILES: Nc1ncnc2c1ncn2[C@@H]1O[C@H](COP(=O)(O)O)[C@@H](n2cc(COCCOCCOCCOCCNC(=O)CCCC[C@@H]3SC[C@@H]4NC(=O)N[C@@H]43)nn2)[C@H]1O[C@H]1O[C@H](COP(=O)(O)O)[C@@H](O)[C@H]1O [biotin-isoADPr]
- Kd (RNF146 WWE [4]; SA biosensor, 1:1 fit): 0.644 µM
- kon (RNF146 WWE [4]; mean ± error, n = 3): 65700 M⁻¹ s⁻¹
- koff (RNF146 WWE [4]; mean ± error, n = 3, read-out: kdis): 0.0423 s⁻¹

SMILES: COc1cc(CC(=O)O)ccc1O [Z1203162033]
- binding strength in attempted IC50 measurement (RNF146 WWE domain [1]; Figure S4): much weaker binder
- percent binding of tracer (RNF146 WWE [5]; AVERAGE of two plates): 43.4%
- percent binding of tracer (RNF146 WWE [5]; PLATE1): 43.6%
- percent binding of tracer (RNF146 WWE [5]; PLATE2): 43.3%

SMILES: O=C(O)c1cc2occc2[nH]1 [compound 12]
- Hillslope (RNF146 WWE domain [1]): -1.134
- IC50 (RNF146 WWE domain [1]; fragment hits): 86.2 µM and 86 µM

SMILES: Nc1ncnc2c1ncn2[C@@H]1O[C@H](COP(=O)(O)O)[C@@H](O)[C@H]1O[C@H]1O[C@H](COP(=O)(O)O)[C@@H](O)[C@H]1O [isoADPr, iso-ADP-ribose]
- IC50 (RNF146 WWE domain [1]; 96-well): 0.623 µM
- Kd (RNF146 WWE [6]): 0.37 µM
- Kd (HUWE1 WWE [7]): 13 µM

SMILES: CN(C)c1ccc2c(c1)Oc1cc(N(C)C)ccc1C21OC(=O)c2cc(C(=O)NCCCCCCNC(=O)CCc3cn([C@H]4O[C@H](COP(=O)(O)OP(=O)(O)OC[C@H]5O[C@@H](n6cnc7c(N)ncnc76)[C@H](O)[C@@H]5O)[C@@H](O)[C@H]4O)nn3)ccc21 [TAMRA-ADPr]
- binding of TAMRA-ADPr (WWE domains): does not bind
